Like-named read-outs stand apart in the source and are kept apart here. Where only a bound is given, the exact number is not on record here.

For one data set, the system named is K1 P. falciparum strain. The data set is described as follows: In vitro antiplasmodial evaluation (SYBR Green I fluorescence-based method). The class given is cell-based. As to conditions: for EC50: read-out: PfK1 EC50; for SI (selectivity index = CC50/EC50): CC50 HepG2 / EC50 PfK1; for IC50: K1, Figures 2 and 3, read-out: IC50 P. falci. K1; for activity against P. falciparum (in words): K1 strain. On the procedure:
It was maintained in continuous culture as described previously by Trager and Jensen. […] Parasitemia was maintained daily at between 1 and 3%. The P. falciparum drug susceptibility test was carried out by comparing quantities of DNA in treated and control cultures of parasite in human erythrocytes according to an SYBR Green I fluorescence-based method using a 96-well fluorescence plate reader. […] Duplicate assays were performed for each sample. After incubation, plates were frozen at -20 °C for 24 h. […] Fifteen μL of each sample were transferred to 96-well flat bottom non-sterile black plates (Greiner Bio-one) already containing 15 μL of the SYBR Green I lysis buffer (2X SYBR Green I, 20 mM Tris base pH 7.5, 20 mM EDTA, 0.008% w/v saponin, 0.08% w/v Triton X-100).

Data set [1] in a line: In vitro cytotoxicity evaluation (MTT). The class given is cell-based. To be noted: human. On the procedure: Triplicate assays were performed for each sample. Each plate-well was then microscope-examined for possible precipitate formation before the medium was aspirated from the wells. 100 μL of MTT (3-(4,5-dimethyl-2-thiazolyl)-2,5-diphenyl-2H-tetrazolium bromide) solution (0.5 mg/mL in medium without FBS) were then added to each well. […] After this time, the MTT solution was removed and DMSO (100 μL) was added to dissolve the resulting blue formazan crystals. Plates were shaken vigorously (700 rpm) for 10 min. The absorbance was measured at 570 nm with 630 nm as reference wavelength using a BIO-TEK ELx808 Absorbance Microplate Reader (LabX, Midland, ON, Canada). DMSO was used as blank and doxorubicin (purchased from Sigma Aldrich) as positive control. Cell viability was calculated as percentage of control (cells incubated without compound). […] CC50 values represent the mean value calculated from three independent experiments.

Where [2] appears, read: Plasmodium falciparum, K1, 72 h, multi-resistant K1 P. falciparum strain, 72 h incubation.
[3] abbreviates: multi-resistant K1 P. falciparum strain, 72 h incubation.

As a reminder, the EC50 is the concentration at which the effect is half-maximal. In general, CC50 refers to the concentration that lowers cell viability or growth by half. Regarding `C[C@H]1c2cccc(O)c2C(=O)C2=C(O)[C@]3(O)C(=O)C(C(N)=O)=C(O)[C@@H](N(C)C)[C@@H]3[C@@H](O)[C@@H]21` [Doxycycline, reference compound], the EC50 in the data set with K1 P. falciparum strain (setting [2]) was found to be 6 µM. Also, in data set [1], the CC50 at 72 h stood at 20 µM.
A word on the melting point: it is the temperature, or range, at which the solid turns liquid. As to `CC(=O)NCCOc1nc(C(Cl)(Cl)Cl)nc2ccccc12` [Molecule 42, N-{2-[(2-Trichloromethylquinazolin-4-yl)oxy]ethyl}acetamide], the melting point is 135 °C. For the same compound, the “SI (selectivity index = CC50/EC50)” value with K1 P. falciparum strain is reported as greater than 30. Also, the EC50 in the data set on K1 P. falciparum strain (setting [2]) is 3.3 µM. In data set [1], this compound returned a CC50 at 72 h greater than 99.7 µM.
The term IC50 denotes the point on the concentration scale where inhibition reaches its midpoint. As for `COc1ccc(C(=O)Nc2nc(C(Cl)(Cl)Cl)nc3ccccc23)cc1` [Molecule 16, 4-Methoxy-N-(2-Trichloromethylquinazolin-4-yl)benzamide], the IC50 in the data set on K1 P. falciparum strain (Plasmodium falciparum) stood at 0.94 µM. In data set [1], the CC50 at 72 h turned out to be 27.7 µM.
Turning to `O=C(c1ccc(Cl)cc1)N(C(=O)c1ccc(Cl)cc1)c1nc(C(Cl)(Cl)Cl)nc2ccccc12` [Molecule 3, 4-Chloro-N-(4-Chlorobenzoyl)-N-(2-Trichloromethylquinazolin-4-yl)benzamide], the melting point stood at 218.2 °C. For the same compound, in the data set with K1 P. falciparum strain, the “SI (selectivity index = CC50/EC50)” value stood at 13.7. The EC50 with K1 P. falciparum strain (setting [2]) is 1.46 µM. Half-maximal cytotoxicity in data set [1] (CC50 at 72 h) was put at 20 µM.
`O=C(Nc1nc(C(Cl)(Cl)Cl)nc2ccccc12)c1ccc(F)cc1` [Molecule 9, 4-Fluoro-N-(2-Trichloromethylquinazolin-4-yl)benzamide]: the melting point was found to be 166 °C. For the same compound, the EC50 in the data set on K1 P. falciparum strain (setting [2]) was no more than 2 µM. In addition, the EC50 in the data set with K1 P. falciparum strain (setting [3]) turned out to be 1.34 µM. The compound further yielded a CC50 at 72 h in data set [1] of 29.4 µM.
`CCN(CC)CCOc1nc(C(Cl)(Cl)Cl)nc2ccccc12` [Molecule 41, N,N-Diethyl-2-[(2-Trichloromethylquinazolin-4-yl)oxy]ethanamine] showed a melting point of 137 °C. Moreover, the IC50 with K1 P. falciparum strain (Plasmodium falciparum) is 0.9 µM. In data set [1], the CC50 at 72 h was 32.3 µM.
In turn, `CC(C)Oc1nc(C(Cl)(Cl)Cl)nc2ccccc12` [Molecule 30, 4-Isopropoxy-2-Trichloromethylquinazoline] gave a melting point of 210 °C. Besides, in the data set with K1 P. falciparum strain, the “SI (selectivity index = CC50/EC50)” value is recorded as less than 10 and the “activity against P. falciparum (in words)” value is “inactive”. The EC50 in the data set with K1 P. falciparum strain (setting [2]) is greater than 10 µM. This compound showed a CC50 at 72 h in data set [1] of 102 µM.
For the compound `COc1ccc(C(=O)Nc2nc(C)nc3ccccc23)cc1` [Molecule 45, 4-methoxy-N-(2-Methylquinazolin-4-yl)benzamide], the “activity against P. falciparum (in words)” value in the data set on K1 P. falciparum strain is “inactive”. Besides, the IC50 in the data set on K1 P. falciparum strain (Plasmodium falciparum) is greater than 50 µM.
`COc1nc(C(Cl)(Cl)Cl)nc2ccccc12` [Molecule 26, 4-Methoxy-2-Trichloromethylquinazoline] returned a melting point of 83 °C. Also, the “SI (selectivity index = CC50/EC50)” value in the data set on K1 P. falciparum strain amounted to 5.5. For the same compound, in the data set with K1 P. falciparum strain (setting [2]), the EC50 came out at 7.1 µM. The compound also registered a CC50 at 72 h in data set [1] of 39.3 µM.
The like results for `FCCOc1nc(C(Cl)(Cl)Cl)nc2ccccc12` [Molecule 39, 4-(2-Fluoroethoxy)-2-Trichloromethylquinazoline] were, in that order, 73 °C, 3.7, 8 µM and 29.5 µM.
Compound `CCN(CC)CCOc1nc(C)nc2ccccc12` [Molecule 47, N,N-Diethyl-2-[(2-Methylquinazolin-4-yl)oxy]ethanamine] returned a melting point of 230 °C. Also, in the data set on K1 P. falciparum strain, the “activity against P. falciparum (in words)” value was “inactive”. Further, in the data set with K1 P. falciparum strain (Plasmodium falciparum), the IC50 is greater than 50 µM.
In the case of `O=C(Nc1nc(C(Cl)(Cl)Cl)nc2ccccc12)c1ccccc1Cl` [Molecule 13, 2-Chloro-N-(2-Trichloromethylquinazolin-4-yl)benzamide], the EC50 in the data set on K1 P. falciparum strain (setting [2]) is 9.04 µM. In addition, in data set [1], it took 27.3 µM to reach half-maximal cytotoxicity (CC50 at 72 h).
For `ClCCCCOc1nc(C(Cl)(Cl)Cl)nc2ccccc12` [Molecule 38, 4-(4-Chlorobutoxy)-2-Trichloromethylquinazoline], the “SI (selectivity index = CC50/EC50)” value in the data set with K1 P. falciparum strain amounted to 11.7. Further, in the data set with K1 P. falciparum strain (setting [2]), the EC50 stood at 4.3 µM. The CC50 at 72 h in data set [1] worked out at 50.5 µM.
As to `CCN(CC)CCOc1nc(C(F)(F)F)nc2ccccc12` [Molecule 48, N,N-Diethyl-2-[(2-Trifluoromethylquinazolin-4-yl)oxy]ethan-1-Amine], the “activity against P. falciparum (in words)” value in the data set with K1 P. falciparum strain is “inactive”. Moreover, the IC50 with K1 P. falciparum strain (Plasmodium falciparum) is greater than 50 µM.
For the compound `N#Cc1ccc(C(=O)Nc2nc(C(Cl)(Cl)Cl)nc3ccccc23)cc1` [Molecule 15, 4-Cyano-N-(2-Trichloromethylquinazolin-4-yl)benzamide], in the data set with K1 P. falciparum strain (setting [2]), the EC50 turned out to be 3.5 µM. Besides, in data set [1], the CC50 at 72 h amounted to 31.4 µM.
`ClC(Cl)(Cl)c1nc(OCCN2CCCC2)c2ccccc2n1` [Molecule 44, 4-[2-(Pyrrolidin-1-yl)ethoxy]-2-Trichloromethylquinazoline]: the results for the EC50 with K1 P. falciparum strain (setting [2]) and in the data set with K1 P. falciparum strain (setting [3]) were no more than 2 µM and 1.3 µM, respectively. The midpoint of cytotoxicity in data set [1], the CC50 at 72 h, lay at 43.7 µM.
For `O=C(Nc1nc(C(Cl)(Cl)Cl)nc2ccccc12)c1ccc(Cl)cc1` [Molecule 2, 4-Chloro-N-(2-Trichloromethylquinazolin-4-yl)benzamide], the melting point came out at 199 °C. In addition, the CC50 at 72 h in data set [1] stood at 21 µM.
In the case of `COc1cccc2c1C(=O)c1c(O)c3c(c(O)c1C2=O)C[C@@](O)(C(=O)CO)C[C@@H]3O[C@H]1C[C@H](N)[C@H](O)[C@H](C)O1` [Doxorubicin, reference compound], it took 0.2 µM to reach half-maximal cytotoxicity in data set [1] (CC50 at 72 h).
As for `ClC(Cl)(Cl)c1nc(OCCN2CCCCC2)c2ccccc2n1` [Molecule 43, 4-[2-(Piperidin-1-yl)ethoxy]-2-Trichloromethylquinazoline], the “SI (selectivity index = CC50/EC50)” value with K1 P. falciparum strain is given as 16.5. Besides, the EC50 in the data set with K1 P. falciparum strain (setting [2]) stood at 1.4 µM. In data set [1], this compound yielded a CC50 at 72 h of 23.4 µM.
As for `CCN(CC)CCCC(C)Nc1ccnc2cc(Cl)ccc12` (stereo not shown) [Chloroquine, reference compound], the EC50 in the data set on K1 P. falciparum strain (Plasmodium falciparum, K1, 72 h) is 0.8 µM.
`COc1ccc(C(=O)Nc2nc(C(F)(F)F)nc3ccccc23)cc1` [Molecule 46, 4-methoxy-N-(2-Trifluoromethylquinazolin-4-yl)benzamide] displayed a melting point of 190 °C. The “activity against P. falciparum (in words)” value in the data set with K1 P. falciparum strain is “inactive”. The IC50 with K1 P. falciparum strain (Plasmodium falciparum) is greater than 50 µM.
As for `O=C(Nc1nc(C(Cl)(Cl)Cl)nc2ccccc12)c1cccc(Cl)c1` [Molecule 12, 3-Chloro-N-(2-Trichloromethylquinazolin-4-yl)benzamide], the EC50 in the data set with K1 P. falciparum strain (setting [2]) came out at 1.54 µM. In data set [1], this compound had a CC50 at 72 h of 16.4 µM.
For `O=C(Nc1nc(C(Cl)(Cl)Cl)nc2ccccc12)c1ccc(Br)cc1` [Molecule 14, 4-Bromo-N-(2-Trichloromethylquinazolin-4-yl)benzamide] the same measures were 1.3 µM and 19.5 µM.
`CCCCOc1nc(C(Cl)(Cl)Cl)nc2ccccc12` [Molecule 29, 4-Butoxy-2-Trichloromethylquinazoline]: the “SI (selectivity index = CC50/EC50)” value in the data set on K1 P. falciparum strain came out at 14.2. Besides, the EC50 in the data set on K1 P. falciparum strain (setting [2]) stood at 5.8 µM. In data set [1], half-maximal cytotoxicity (CC50 at 72 h) was put at 82.4 µM.
In the case of `O=C(Nc1nc(C(Cl)(Cl)Cl)nc2ccccc12)c1cccc([N+](=O)[O-])c1` [Molecule 7, 3-Nitro-N-(2-Trichloromethylquinazolin-4-yl)benzamide], the EC50 with K1 P. falciparum strain (setting [2]) was found to be 3.37 µM. Also, in data set [1], it took 24.8 µM to reach half-maximal cytotoxicity (CC50 at 72 h).
In the case of `CCN(CC)CCOc1ncnc2ccccc12` [Molecule 49, N,N-Diethyl-2-(Quinazolin-4-yloxy)ethanamine], the “activity against P. falciparum (in words)” value in the data set on K1 P. falciparum strain was “inactive”. The IC50 in the data set on K1 P. falciparum strain (Plasmodium falciparum) is greater than 50 µM.

These data come from PMC7504092, “Synthesis and Antiplasmodial Evaluation of 4-Carboxamido- and 4-Alkoxy-2-Trichloromethyl Quinazolines” (Molecules, 2020).
